Tests used:
Assay type in all cases: cell-based
[1] = target: T1, NaV1.7 (Homo sapiens (Human), UniProt Q15858); assay: NaV flux assay, inhibition of NaV1.7; details: NaV flux data, included when EP data is not available
[2] = target: T2, NaV1.5 (Homo sapiens (Human), UniProt Q14524); assay: NaV flux assay, inhibition of NaV1.5; details: NaV flux data, included when EP data is not available
[3] = target: T1, NaV1.7; assay: Patch voltage clamp electrophysiology (EP), affinity for the inactivated state of Nav1.7; details: HEK-293 cells expressing human Nav1.7 with β1 subunit
Description: (§1) The following patch voltage clamp electrophysiology studies were performed on representative compounds of the invention using human embryonic kidney cells (HEK), permanently transfected with an expression vector containing the full-length cDNA coding for the desired human sodium channel α-subunit, grown in culture media containing 10% FBS, 1% PSG, and 0.5 mg/mL G418 at 37° C. with 5% CO2. […] Nav1.7 and Nav1.5 cDNAs (NM_002977 and AC137587; SCN5A, respectively) were stably expressed in HEK-293 cells. The β1 subunit was coexpressed only in the Nav1.7 cell line.
(§2) Sodium currents were measured using the patch clamp technique in the whole-cell configuration using either a PatchXpress automated voltage clamp or manually using an Axopatch 200B (Axon Instruments) or Model 2400 (A-M systems) amplifier. […] The pipette was filled with a solution comprised of: 5 mM NaCl, 10 mM CsCl, 120 mM CsF, 0.1 mM CaCl2, 2 mM MgCl2, 10 mM HEPES, 10 mM EGTA; and adjusted to pH 7.2 with CsOH. The external solution had the following composition: 140 mM NaCl, 5 mM KCl, 2 mM CaCl2, 1 mM MgCl2, 10 mM HEPES; and adjusted to pH 7.4 with NaOH. In some studies, the external sodium was reduced by equimolar replacement with choline. Osmolarity in the CsF internal and NaCl external solutions was adjusted to 300 mOsm/kg and 310 mOsm/kg with glucose, respectively. All recordings were performed at ambient temperature in a bath chamber with a volume of 150 μL. Control sodium currents were measured in 0.5% DMSO. Controls and representative compounds of the invention were applied to the recording chamber through a 4-pinch or 8-pinch valve bath perfusion system manufactured by ALA Scientific Instruments.
Series resistance compensation was applied (60-80%). […] All statistics in this study are given as mean±SD.
(§3) The membrane potential was maintained at a voltage where inactivation of the channel is complete (which was −60 mV for both Nav1.7 and Nav1.5). The voltage is then stepped back to a very negative (Vhold=−150 mV) voltage for 20 ms and then a test pulse is applied to quantify the compound block. […] The percent decrease in sodium current following wash-on of compound was taken as the percent block of sodium channels.
(§4) The Example numbers provided in Table 1 and Table 2 correspond to the Examples herein: […]

[4] = target: T2, NaV1.5; assay: Patch voltage clamp electrophysiology (EP), affinity for the inactivated state of Nav1.5
Description: Patch voltage clamp electrophysiology allows for the direct measurement and quantification of block of voltage-gated sodium channels (Nav's), and allows the determination of the time- and voltage-dependence of block which has been interpreted as differential binding to the resting, open, and inactivated states of the sodium channel (Hille, B., Journal of General Physiology (1977), 69: 497-515).
as §1, §2
Currents were recorded at 40 kHz sampling frequency, filtered at […], and stored using a Digidata-1322A analogue/digital interface with the pClamp software (Axon Instruments). Series resistance compensation was applied (60-80%). […] All statistics in this study are given as mean±SD.
as §3, §4

[5] = HEK-293 cells expressing human Nav1.5, read-out: NaV1.5 IC50
[6] = HEK-293 cells expressing human Nav1.5, read-out: NaV1.5 IC50(μM) (class)

T1 sequence (Q15858 other isoform, or with tags, fused parts or gaps): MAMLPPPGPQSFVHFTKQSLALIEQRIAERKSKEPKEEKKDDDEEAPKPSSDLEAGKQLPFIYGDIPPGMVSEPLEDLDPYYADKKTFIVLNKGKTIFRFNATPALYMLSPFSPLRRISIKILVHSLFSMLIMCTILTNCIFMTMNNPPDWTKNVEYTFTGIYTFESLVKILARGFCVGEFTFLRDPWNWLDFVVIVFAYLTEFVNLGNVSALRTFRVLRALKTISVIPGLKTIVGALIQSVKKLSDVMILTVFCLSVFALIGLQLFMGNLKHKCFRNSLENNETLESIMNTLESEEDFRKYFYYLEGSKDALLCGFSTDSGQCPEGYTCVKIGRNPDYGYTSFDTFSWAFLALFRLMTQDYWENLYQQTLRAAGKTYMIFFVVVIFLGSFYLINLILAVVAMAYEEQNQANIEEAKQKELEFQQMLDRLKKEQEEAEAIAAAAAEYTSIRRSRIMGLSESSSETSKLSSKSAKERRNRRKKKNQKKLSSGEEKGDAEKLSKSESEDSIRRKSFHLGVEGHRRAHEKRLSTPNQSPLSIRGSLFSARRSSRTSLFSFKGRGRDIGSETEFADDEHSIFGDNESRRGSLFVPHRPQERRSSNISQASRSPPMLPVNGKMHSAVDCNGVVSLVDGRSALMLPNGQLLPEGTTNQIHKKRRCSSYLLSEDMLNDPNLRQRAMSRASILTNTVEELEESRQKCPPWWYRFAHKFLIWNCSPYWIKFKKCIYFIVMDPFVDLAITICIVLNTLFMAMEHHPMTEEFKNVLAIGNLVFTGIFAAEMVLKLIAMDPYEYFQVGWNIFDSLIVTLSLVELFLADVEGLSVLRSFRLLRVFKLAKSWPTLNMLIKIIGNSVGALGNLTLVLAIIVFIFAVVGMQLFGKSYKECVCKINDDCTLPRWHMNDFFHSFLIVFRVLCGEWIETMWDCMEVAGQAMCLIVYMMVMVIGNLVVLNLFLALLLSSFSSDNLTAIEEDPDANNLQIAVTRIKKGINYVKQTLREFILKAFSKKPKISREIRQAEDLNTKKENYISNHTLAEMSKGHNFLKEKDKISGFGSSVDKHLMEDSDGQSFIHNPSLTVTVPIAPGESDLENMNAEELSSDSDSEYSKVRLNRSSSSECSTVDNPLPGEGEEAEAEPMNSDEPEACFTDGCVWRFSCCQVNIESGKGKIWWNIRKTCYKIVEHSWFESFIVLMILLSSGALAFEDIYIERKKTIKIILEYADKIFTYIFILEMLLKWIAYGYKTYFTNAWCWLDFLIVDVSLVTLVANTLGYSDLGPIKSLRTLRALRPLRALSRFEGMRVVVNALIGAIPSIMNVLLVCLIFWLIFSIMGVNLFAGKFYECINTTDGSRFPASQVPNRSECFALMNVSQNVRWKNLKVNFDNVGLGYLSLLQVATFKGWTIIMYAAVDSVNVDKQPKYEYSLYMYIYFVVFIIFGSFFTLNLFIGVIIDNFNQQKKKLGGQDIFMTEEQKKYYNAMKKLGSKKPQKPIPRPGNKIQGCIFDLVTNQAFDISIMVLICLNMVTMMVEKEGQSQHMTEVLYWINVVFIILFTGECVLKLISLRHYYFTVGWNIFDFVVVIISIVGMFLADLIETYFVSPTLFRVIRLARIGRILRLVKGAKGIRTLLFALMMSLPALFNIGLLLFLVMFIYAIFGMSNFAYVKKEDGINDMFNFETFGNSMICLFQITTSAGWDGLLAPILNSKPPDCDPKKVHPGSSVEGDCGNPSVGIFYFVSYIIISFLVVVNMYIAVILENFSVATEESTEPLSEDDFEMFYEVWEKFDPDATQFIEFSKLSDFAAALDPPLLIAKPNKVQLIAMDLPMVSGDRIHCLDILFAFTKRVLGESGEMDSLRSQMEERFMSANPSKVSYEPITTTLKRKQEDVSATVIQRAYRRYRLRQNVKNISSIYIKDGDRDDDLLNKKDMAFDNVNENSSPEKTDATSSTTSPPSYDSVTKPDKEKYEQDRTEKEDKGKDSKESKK
T1 sequence (Q07699 19-218 partner): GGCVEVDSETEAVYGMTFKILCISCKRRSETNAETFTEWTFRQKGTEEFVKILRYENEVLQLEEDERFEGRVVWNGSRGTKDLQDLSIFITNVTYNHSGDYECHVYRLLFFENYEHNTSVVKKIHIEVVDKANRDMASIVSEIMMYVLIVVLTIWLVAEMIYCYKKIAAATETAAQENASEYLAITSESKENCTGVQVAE
T2 sequence (Q14524 whole entry): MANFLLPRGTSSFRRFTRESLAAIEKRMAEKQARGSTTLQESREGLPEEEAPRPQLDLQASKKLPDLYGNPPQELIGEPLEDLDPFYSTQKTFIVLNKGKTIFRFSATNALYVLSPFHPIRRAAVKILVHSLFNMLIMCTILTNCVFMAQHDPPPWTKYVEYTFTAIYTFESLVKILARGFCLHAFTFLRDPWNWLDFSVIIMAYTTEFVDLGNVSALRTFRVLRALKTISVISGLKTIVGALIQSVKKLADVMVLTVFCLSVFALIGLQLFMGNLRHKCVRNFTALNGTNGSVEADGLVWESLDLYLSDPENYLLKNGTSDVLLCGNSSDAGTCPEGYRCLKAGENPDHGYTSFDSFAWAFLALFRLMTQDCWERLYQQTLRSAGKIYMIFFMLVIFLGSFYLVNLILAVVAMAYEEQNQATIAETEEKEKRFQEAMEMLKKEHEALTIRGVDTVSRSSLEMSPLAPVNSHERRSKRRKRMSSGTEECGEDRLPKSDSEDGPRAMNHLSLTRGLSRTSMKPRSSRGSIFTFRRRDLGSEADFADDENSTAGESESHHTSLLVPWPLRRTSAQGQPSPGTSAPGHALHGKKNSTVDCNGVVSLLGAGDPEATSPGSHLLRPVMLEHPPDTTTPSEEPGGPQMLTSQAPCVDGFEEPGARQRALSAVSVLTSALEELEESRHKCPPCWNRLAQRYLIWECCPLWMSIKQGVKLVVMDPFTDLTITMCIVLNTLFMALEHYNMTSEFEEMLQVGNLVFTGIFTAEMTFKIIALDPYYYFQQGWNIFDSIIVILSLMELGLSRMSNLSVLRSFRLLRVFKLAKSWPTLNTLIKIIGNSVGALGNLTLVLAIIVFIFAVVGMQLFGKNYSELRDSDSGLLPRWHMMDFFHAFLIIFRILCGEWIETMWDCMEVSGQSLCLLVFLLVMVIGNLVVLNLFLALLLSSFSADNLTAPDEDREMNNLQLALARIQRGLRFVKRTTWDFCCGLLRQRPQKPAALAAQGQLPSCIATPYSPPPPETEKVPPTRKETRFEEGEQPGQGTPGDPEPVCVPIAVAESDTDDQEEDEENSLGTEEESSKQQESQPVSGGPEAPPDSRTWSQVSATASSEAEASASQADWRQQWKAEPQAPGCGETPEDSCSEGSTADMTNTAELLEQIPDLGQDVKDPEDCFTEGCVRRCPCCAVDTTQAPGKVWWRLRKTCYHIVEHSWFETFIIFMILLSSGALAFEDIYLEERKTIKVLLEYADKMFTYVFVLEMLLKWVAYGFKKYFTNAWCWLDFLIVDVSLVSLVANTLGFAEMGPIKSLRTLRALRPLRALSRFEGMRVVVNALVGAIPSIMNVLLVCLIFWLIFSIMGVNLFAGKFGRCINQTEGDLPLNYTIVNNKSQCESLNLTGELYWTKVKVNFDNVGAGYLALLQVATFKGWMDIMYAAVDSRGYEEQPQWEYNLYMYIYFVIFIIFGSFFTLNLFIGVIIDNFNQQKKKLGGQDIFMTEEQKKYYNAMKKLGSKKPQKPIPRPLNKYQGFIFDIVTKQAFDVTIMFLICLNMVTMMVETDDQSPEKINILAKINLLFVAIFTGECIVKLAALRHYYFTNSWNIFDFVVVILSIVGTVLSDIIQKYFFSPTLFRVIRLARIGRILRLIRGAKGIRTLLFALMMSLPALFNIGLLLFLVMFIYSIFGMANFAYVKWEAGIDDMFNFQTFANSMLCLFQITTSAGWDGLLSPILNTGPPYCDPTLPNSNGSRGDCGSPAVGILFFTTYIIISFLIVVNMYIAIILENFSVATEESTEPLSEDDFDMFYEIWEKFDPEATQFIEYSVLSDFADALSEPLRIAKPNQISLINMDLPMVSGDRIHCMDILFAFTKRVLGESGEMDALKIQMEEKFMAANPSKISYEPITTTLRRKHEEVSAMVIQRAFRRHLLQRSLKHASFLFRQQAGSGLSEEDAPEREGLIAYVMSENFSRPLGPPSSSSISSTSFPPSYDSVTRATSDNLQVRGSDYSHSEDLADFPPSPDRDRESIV

IC50 [1] [nM] | IC50 ([3]; read-out: NaV1.7 (IC50 class)) [nM] | IC50 ([3]; read-out: NaV1.7 IC50) [nM] | Compound | IC50 [2] [nM] | IC50 [4, 5] [µM] | IC50 [4, 6] [µM]
393 | – | – | Cc1ccc([C@@H]2CCNC[C@H]2COc2cc(F)c(S(=O)(=O)Nc3ncns3)cc2F)cc1 (relative stereo) [Example 100, 2,5-difluoro-N-(1,2,4-thiadiazol-5-yl)-4-((trans-4-(p-tolyl)piperidin-3-yl)methoxy)benzenesulfonamide] | > 10000 | – | –
132 | – | – | COc1ccc([C@@H]2CCNC[C@H]2COc2cc(F)c(S(=O)(=O)Nc3ncns3)cc2F)cc1 (relative stereo) [Example 94, 2,5-difluoro-4-((trans-4-(4-methoxyphenyl)piperidin-3-yl)methoxy)-N-(1,2,4-thiadiazol-5-yl)benzenesulfonamide] | > 10000 | – | –
71 | – | – | O=S(=O)(Nc1ncns1)c1cc(F)c(OC[C@@H]2CNCC[C@H]2c2ccc(F)c(C(F)F)c2)cc1F (relative stereo) [Example 108, 4-((trans-4-(3-(difluoromethyl)-4-fluorophenyl)piperidin-3-yl)methoxy)-2,5-difluoro-N-(1,2,4-thiadiazol-5-yl)benzenesulfonamide] | > 10000 | – | –
– | < 100 | 4.8 | CN1CC[C@H](c2ccc(Cl)cc2)[C@@H](COc2cc(F)c(S(=O)(=O)Nc3ncns3)cc2F)C1 [Example 85, 4-(((3R,4S)-4-(4-chlorophenyl)-1-methylpiperidin-3-yl)methoxy)-2,5-difluoro-N-(1,2,4-thiadiazol-5-yl)benzenesulfonamide] | – | > 10 | > 10
244 | – | – | O=C1CC[C@@H](c2ccc(Cl)cc2)[C@H](COc2cc(F)c(S(=O)(=O)Nc3ncns3)cc2F)C1 (relative stereo) [Example 109, 4-((trans-2-(4-chlorophenyl)-5-oxocyclohexyl)methoxy)-2,5-difluoro-N-(1,2,4-thiadiazol-5-yl)benzenesulfonamide] | > 10000 | – | –
– | < 100 | 12 | CN1CC[C@@H](c2ccc(Cl)cc2)[C@H](COc2cc(F)c(S(=O)(=O)Nc3ncns3)cc2F)C1 (relative stereo) [Example 70, 4-((trans-4-(4-chlorophenyl)-1-methylpiperidin-3-yl)methoxy)-2,5-difluoro-N-(1,2,4-thiadiazol-5-yl)benzenesulfonamide] | – | > 10 | > 10
– | < 100 | 0.8 | O=S(=O)(Nc1ncns1)c1cc(F)c(OC[C@@H]2CNCC[C@H]2c2ccc(Cl)c(Cl)c2)cc1F (relative stereo) [Example 92, 4-((trans-4-(3,4-dichlorophenyl)piperidin-3-yl)methoxy)-2,5-difluoro-N-(1,2,4-thiadiazol-5-yl)benzenesulfonamide] | > 10000 | – | –
38 | – | – | O=S(=O)(Nc1ncns1)c1cc(F)c(OC[C@@H]2CNCC[C@H]2c2ccc(F)c(C(F)(F)F)c2)cc1F (relative stereo) [Example 107, 2,5-difluoro-4-((trans-4-(4-fluoro-3-(trifluoromethyl)phenyl)piperidin-3-yl)methoxy)-N-(1,2,4-thiadiazol-5-yl)benzenesulfonamide] | > 10000 | – | –
– | < 100 | 6.8 | O=S(=O)(Nc1ncns1)c1cc(F)c(OC[C@@H]2CNCC[C@H]2c2ccc(F)cc2)cc1F (relative stereo) [Example 45, 2,5-difluoro-4-((trans-4-(4-fluorophenyl)piperidin-3-yl)methoxy)-N-(1,2,4-thiadiazol-5-yl)benzenesulfonamide] | – | > 10 | > 10
– | < 100 | 82 | O=C1C[C@@H](c2ccc(F)cc2)[C@H](COc2cc(F)c(S(=O)(=O)Nc3ncns3)cc2F)CN1 (relative stereo) [Example 87, 2,5-difluoro-4-((trans-4-(4-fluorophenyl)-6-oxopiperidin-3-yl)methoxy)-N-(1,2,4-thiadiazol-5-yl)benzenesulfonamide] | – | > 10 | > 10
– | 100 to 1000 | 331 | CN1CC[C@@H](c2ccc(Cl)cc2)[C@H](COc2cc(F)c(S(=O)(=O)Nc3ncns3)cc2F)C1 [Example 86, 4-(((3S,4R)-4-(4-chlorophenyl)-1-methylpiperidin-3-yl)methoxy)-2,5-difluoro-N-(1,2,4-thiadiazol-5-yl)benzenesulfonamide] | – | > 10 | > 10

Second part, the compound before the results:

Compound | IC50 [1] [nM] | IC50 ([3]; read-out: NaV1.7 (IC50 class)) [nM] | IC50 ([3]; read-out: NaV1.7 IC50) [nM] | IC50 [2] [nM] | IC50 [4, 5] [µM] | IC50 [4, 6] [µM]
CC(C)CNS(=O)(=O)c1cc(F)c(OC[C@@H]2CNCC[C@H]2c2ccc(Cl)cc2)cc1F (relative stereo) [Example 96, 4-((trans-4-(4-chlorophenyl)piperidin-3-yl)methoxy)-2,5-difluoro-N-isobutylbenzenesulfonamide] | 4900 | – | – | 7560 | – | –
O=S(=O)(Nc1ncns1)c1cc(F)c(OC[C@@H]2CNCC[C@H]2c2ccc(Cl)c(F)c2)cc1F (relative stereo) [Example 97, 4-((trans-4-(4-chloro-3-fluorophenyl)piperidin-3-yl)methoxy)-2,5-difluoro-N-(1,2,4-thiadiazol-5-yl)benzenesulfonamide] | – | – | – | > 10000 | – | –
N#Cc1cc(S(=O)(=O)Nc2ncns2)ccc1OC[C@@H]1CNCC[C@H]1c1ccc(Cl)cc1 (relative stereo) [Example 58, 4-((trans-4-(4-chlorophenyl)piperidin-3-yl)methoxy)-3-cyano-N-(1,2,4-thiadiazol-5-yl)benzenesulfonamide] | – | < 100 | 3.3 | – | > 10 | > 10
O=S(=O)(Nc1ncns1)c1cc(F)c(OC[C@@H]2CN(CC(F)(F)F)CC[C@H]2c2ccc(Cl)cc2)cc1F (relative stereo) [Example 88, 4-((trans-4-(4-chlorophenyl)-1-(2,2,2-trifluoroethyl)piperidin-3-yl)methoxy)-2,5-difluoro-N-(1,2,4-thiadiazol-5-yl)benzenesulfonamide] | – | 100 to 1000 | 130 | – | > 10 | > 10
O=S(=O)(Nc1ncns1)c1cc(F)c(OCC2(F)CNCCC2c2ccc(F)cc2)cc1F (stereo not drawn) [Example 47, 2,5-difluoro-4-((3-fluoro-4-(4-fluorophenyl)piperidin-3-yl)methoxy)-N-(1,2,4-thiadiazol-5-yl)benzenesulfonamide] | – | < 100 | 50.7 | – | > 10 | > 10
O=S(=O)(Nc1ncc(Cl)s1)c1cc(F)c(OC[C@@H]2CNCC[C@H]2c2ccc(F)c(F)c2)cc1F (relative stereo) [Example 61, N-(5-chlorothiazol-2-yl)-4-((trans-4-(3,4-difluorophenyl)piperidin-3-yl)methoxy)-2,5-difluorobenzenesulfonamide] | – | < 100 | 21.6 | – | > 10 | > 10
NC(=O)N1CC[C@@H](c2ccc(F)c(F)c2)[C@H](COc2cc(F)c(S(=O)(=O)Nc3ncc(Cl)s3)cc2F)C1 (relative stereo) [Example 89, trans-3-((4-(N-(5-chlorothiazol-2-yl)sulfamoyl)-2,5-difluorophenoxy)methyl)-4-(3,4-difluorophenyl)piperidine-1-carboxamide] | – | 100 to 1000 | 436 | – | > 10 | > 10
O=S(=O)(Nc1ncns1)c1ccc(OC[C@@H]2CNCC[C@H]2c2ccc(Cl)cc2)c(F)c1 (relative stereo) [Example 59, 4-((trans-4-(4-chlorophenyl)piperidin-3-yl)methoxy)-3-fluoro-N-(1,2,4-thiadiazol-5-yl)benzenesulfonamide] | – | < 100 | 8.6 | – | > 10 | > 10

Reference: patent publication US9630929B2, “Benzenesulfonamide compounds and their use as therapeutic agents” (XENON PHARMACEUTICALS INC., priority 2011, dated 2017)
